Source: ChEMBL document CHEMBL5154872 (Eur J Med Chem, 2022)
≈ marks a conversion by molar mass, not a printed value.

Experiments:
[1] = biological target: T1, Programmed cell death 1 ligand 1 (Homo sapiens, UniProt Q9NZQ7); experiment: Binding affinity towards His-tagged recombinant human PD-L1 measured by MST dimerization binding assay; format: single protein
[2] = Reactivation of mouse CTLL-2 cells pretreated with human PD-L1 assessed as increase in cell proliferation and measured by flow cytometry assay; format: functional, cell-based
[3] = Solubility in PBS at pH 7.4; format: physicochemical
[4] = 1-Octanol/phosphate buffered-saline distribution coefficient, logD of compound at pH 7.4 measured after 2 hrs by LC-MS analysis; format: physicochemical
[5] = Stability in CD-1 mouse plasma assessed as half-ife at 10 uM; format: ADME, cell-free
[6] = biological target: T1, Programmed cell death 1 ligand 1; experiment: Binding affinity towards His-tagged recombinant human PD-L1 measured by MicroScale Thermophoresis (MST) assay
[7] = biological target: Programmed cell death protein 1/Programmed cell death 1 ligand 1 (Homo sapiens, UniProt Q9NZQ7); experiment: Inhibition of human PD-1/PD-L1 interaction in CHO-K1 cells transfected with PD-1-YFP/SHP-2-CFP and measured by FRET assay; format: cell-based
Programmed cell death protein 1/Programmed cell death 1 ligand 1, sequence (Q15116 whole entry): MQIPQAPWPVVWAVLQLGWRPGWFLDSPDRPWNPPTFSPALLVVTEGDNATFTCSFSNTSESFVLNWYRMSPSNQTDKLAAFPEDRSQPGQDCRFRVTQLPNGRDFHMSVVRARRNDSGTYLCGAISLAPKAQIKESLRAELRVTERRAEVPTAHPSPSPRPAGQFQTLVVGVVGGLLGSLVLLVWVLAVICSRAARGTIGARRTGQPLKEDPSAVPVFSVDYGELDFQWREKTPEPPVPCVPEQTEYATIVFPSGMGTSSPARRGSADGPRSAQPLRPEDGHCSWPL
Programmed cell death protein 1/Programmed cell death 1 ligand 1, sequence (Q9NZQ7 whole entry): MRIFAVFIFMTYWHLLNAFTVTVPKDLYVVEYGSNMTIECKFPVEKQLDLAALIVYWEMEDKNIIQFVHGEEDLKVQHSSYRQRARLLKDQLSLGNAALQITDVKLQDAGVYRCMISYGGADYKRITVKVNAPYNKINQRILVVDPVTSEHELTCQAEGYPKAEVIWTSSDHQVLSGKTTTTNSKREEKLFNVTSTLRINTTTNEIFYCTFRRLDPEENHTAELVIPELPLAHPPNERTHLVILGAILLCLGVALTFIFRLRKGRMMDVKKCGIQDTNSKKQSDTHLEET

T1 sequence (Q9NZQ7 whole entry): as above

CC1=NN(c2ccccn2)C(=O)C1
Kd [1]: 53 nM | IC50 [2]: 102 nM | solubility [3]: > 200 µM | logD at 2 h [4]: 0.85 | half-life at 10 µM [5]: 16 min

COc1ccc(C2=NN(c3ccccn3)C(=O)C2)cc1
Kd [1]: 2 nM | IC50 [2]: 75 nM | solubility [3]: 199 µM (≈ 53.2 µg/mL) | logD at 2 h [4]: 2.82 | half-life at 10 µM [5]: 12 min

CCC1=NN(c2ccccn2)C(=O)C1
Kd [6]: > 500000 nM

COc1ccccc1C1=NN(c2ccccn2)C(=O)C1
Kd [1]: 46 nM | IC50 [2]: 14 nM | solubility [3]: 80.9 µM (≈ 21.6 µg/mL) | logD at 2 h [4]: 2.56 | half-life at 10 µM [5]: 10.9 min

Cc1ccccc1C1=NN(c2ccccn2)C(=O)C1
Kd [6]: > 500000 nM

O=C1CC(c2ccc(C(F)(F)F)cc2)=NN1c1ccccn1
Kd [6]: 156 nM | IC50 [7]: 143 nM

O=C1CC(c2ccccc2Cl)=NN1c1ccccn1
Kd [6]: > 500000 nM

O=C1CC(c2ccccn2)=NN1c1ccccn1
Kd [6]: > 500000 nM

Cc1ccc(C2=NN(c3ccccn3)C(=O)C2)cc1
Kd [6]: 1090 nM

O=C1CC(c2ccccc2F)=NN1c1ccccn1
Kd [6]: > 500000 nM

O=C1CC(c2ccc(Cl)c(Cl)c2)=NN1c1ccccn1
Kd [6]: 584 nM

O=C1CC(C23CC4CC(CC(C4)C2)C3)=NN1c1ccc(Cl)cc1Cl
Kd [1]: 24 nM | IC50 [7]: 9 nM | IC50 [2]: 54 nM | solubility [3]: 1.9 µM (≈ 0.69 µg/mL) | logD at 2 h [4]: 4.28 | half-life at 10 µM [5]: 31 min

O=C1CC(c2cccc(Cl)c2)=NN1c1ccccn1
Kd [6]: > 500000 nM

Cc1cccc(C2=NN(c3ccccn3)C(=O)C2)c1
Kd [6]: > 500000 nM

CCCC1=NN(c2ccccn2)C(=O)C1
Kd [6]: > 500000 nM

CCCCC1=NN(c2ccccn2)C(=O)C1
Kd [6]: > 500000 nM

CC(C)C1=NN(c2ccccn2)C(=O)C1
Kd [6]: > 500000 nM

COc1ccc(C2=NN(c3ccccn3)C(=O)C2)cc1OC
Kd [6]: 1.19 nM | Kd [1]: 0.7 nM | IC50 [7]: 7.3 nM | IC50 [2]: 4.1 nM | solubility [3]: 183 µM (≈ 54.4 µg/mL) | logD at 2 h [4]: 2.19 | half-life at 10 µM [5]: 30 min

CC(C)(C)C1=NN(c2ccccn2)C(=O)C1
Kd [6]: > 500000 nM
